Source: ChEMBL document CHEMBL2163233, “3-Oxoisoindoline-1-carboxamides: potent, state-dependent blockers of voltage-gated sodium channel Na(V)1.7 with efficacy in rat pain models” (J Med Chem, 2012)
The source made the active and inactive calls. The calls are words filed in the database; no cut-off is given here.

How the values were obtained:
[1] = target: Alpha-2A adrenergic receptor (Homo sapiens) (UniProt P08913); settings: 10 uM
in vitro [2] = settings: rat, microsomes, CLH
Rattus norvegicus [3] = species: Rattus norvegicus; assay: animal or person; settings: Sprague-Dawley, po, read-out: INH
in vivo [4] = settings: Sprague-Dawley, rat, po, 10 umol/kg
[5] = target: 5-hydroxytryptamine receptor 2A (Homo sapiens) (UniProt P28223); settings: 10 uM
[6] = target: Beta-1 adrenergic receptor (Homo sapiens) (UniProt P08588); settings: 10 uM
[7] = target: Mu-type opioid receptor (Homo sapiens) (UniProt P35372); settings: 10 uM
Rattus norvegicus [8] = species: Rattus norvegicus; settings: Brain, Brain membranes, 10 uM
cells = settings: Homo sapiens, HEK293
in vivo [9] = settings: Sprague-Dawley, rat, iv, 3 umol/kg
[10] = target: Glycine receptor subunit alpha-1 (Homo sapiens) (UniProt P23415); settings: 33 uM
[11] = target: Voltage-dependent T-type calcium channel subunit alpha-1H (Homo sapiens) (UniProt O95180); settings: 31.6 uM
in vivo [12] = settings: Sprague-Dawley, rat, po, 10 umol/kg; remark: listed apart in the source
in vivo [13] = settings: Sprague-Dawley, rat, iv, 3 umol/kg; remark: listed apart in the source
in vivo [14] = settings: Sprague-Dawley, rat, brain/plasma
[15] = target: Alpha-1D adrenergic receptor (Homo sapiens) (UniProt P25100); settings: 10 uM
[16] = target: Potassium voltage-gated channel subfamily KQT member 2 (Homo sapiens) (UniProt O43526); settings: 10 uM
[17] = target: Muscarinic acetylcholine receptor M2 (Homo sapiens) (UniProt P08172); settings: 10 uM
[18] = target: D(2) dopamine receptor (Homo sapiens) (UniProt P14416); settings: 10 uM
in vitro [19] = settings: human, microsomes, CLH
in vitro [20] = settings: Sprague-Dawley, rat, plasma
[21] = target: Histamine H1 receptor (Homo sapiens) (UniProt P35367); settings: 10 uM
[22] = target: Estrogen receptor (Homo sapiens) (UniProt P03372); settings: 10 uM
[23] = target: Transient receptor potential cation channel subfamily A member 1 (Homo sapiens) (UniProt O75762); settings: 11 uM
[24] = target: Prostaglandin G/H synthase 1 (Homo sapiens) (UniProt P23219); settings: 10 uM
[25] = target: Nitric oxide synthase 3 (Homo sapiens) (UniProt P29474); settings: 10 uM
in vivo [26] = settings: Sprague-Dawley, rat, iv, 3 umol/kg; remark: listed apart in the source
in vivo [27] = settings: Sprague-Dawley, rat, po, 10 umol/kg; remark: listed apart in the source
[28] = target: Sodium-dependent noradrenaline transporter (Homo sapiens) (UniProt P23975); settings: 10 uM
Rattus norvegicus [29] = species: Rattus norvegicus; assay: animal or person; settings: Sprague-Dawley, po, read-out: INH; remark: listed apart in the source
Rattus norvegicus [30] = species: Rattus norvegicus; assay: animal or person; settings: Sprague-Dawley, po, read-out: INH; remark: listed apart in the source
[31] = target: Insulin receptor (Homo sapiens) (UniProt P06213); settings: 10 uM
in vivo [32] = settings: Sprague-Dawley, rat, iv, 3 umol/kg; remark: listed apart in the source
in vivo [33] = settings: Sprague-Dawley, rat, po, 10 umol/kg; remark: listed apart in the source
Rattus norvegicus [34] = species: Rattus norvegicus; assay: animal or person; settings: Sprague-Dawley, po, read-out: INH; remark: listed apart in the source
Rattus norvegicus [35] = species: Rattus norvegicus; assay: animal or person; settings: Sprague-Dawley, po, read-out: INH; remark: listed apart in the source
[36] = target: Acetylcholinesterase (Homo sapiens) (UniProt P22303); settings: 10 uM
Rattus norvegicus [37] = species: Rattus norvegicus; assay: animal or person; settings: Sprague-Dawley, po, read-out: INH; remark: listed apart in the source
in vivo [38] = settings: Sprague-Dawley, rat, po, 10 umol/kg; remark: listed apart in the source
[39] = target: Potassium voltage-gated channel subfamily A member 5 (Homo sapiens) (UniProt P22460); settings: 10 uM
Rattus norvegicus [40] = species: Rattus norvegicus; assay: animal or person; settings: Sprague-Dawley, po, read-out: INH; remark: listed apart in the source
Rattus norvegicus [41] = species: Rattus norvegicus; assay: animal or person; settings: Sprague-Dawley, po, read-out: INH; remark: listed apart in the source

Chain of Estrogen receptor (Homo sapiens) (P03372 whole entry): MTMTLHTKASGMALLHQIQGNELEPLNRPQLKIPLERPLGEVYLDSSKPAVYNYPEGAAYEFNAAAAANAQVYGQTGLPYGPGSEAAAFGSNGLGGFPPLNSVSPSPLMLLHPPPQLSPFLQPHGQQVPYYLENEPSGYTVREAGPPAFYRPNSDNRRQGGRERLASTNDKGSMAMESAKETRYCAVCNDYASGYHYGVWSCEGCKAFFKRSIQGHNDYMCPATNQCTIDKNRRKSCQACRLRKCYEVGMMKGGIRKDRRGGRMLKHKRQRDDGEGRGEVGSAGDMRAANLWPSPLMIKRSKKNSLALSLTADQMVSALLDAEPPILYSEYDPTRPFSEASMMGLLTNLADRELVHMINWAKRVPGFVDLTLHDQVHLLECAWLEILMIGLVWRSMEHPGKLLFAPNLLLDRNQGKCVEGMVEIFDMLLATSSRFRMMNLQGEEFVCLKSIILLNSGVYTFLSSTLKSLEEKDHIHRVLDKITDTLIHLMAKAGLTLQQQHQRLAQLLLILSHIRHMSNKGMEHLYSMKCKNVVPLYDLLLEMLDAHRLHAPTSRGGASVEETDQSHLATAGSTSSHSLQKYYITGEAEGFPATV
Chain of Transient receptor potential cation channel subfamily A member 1 (Homo sapiens) (O75762 whole entry): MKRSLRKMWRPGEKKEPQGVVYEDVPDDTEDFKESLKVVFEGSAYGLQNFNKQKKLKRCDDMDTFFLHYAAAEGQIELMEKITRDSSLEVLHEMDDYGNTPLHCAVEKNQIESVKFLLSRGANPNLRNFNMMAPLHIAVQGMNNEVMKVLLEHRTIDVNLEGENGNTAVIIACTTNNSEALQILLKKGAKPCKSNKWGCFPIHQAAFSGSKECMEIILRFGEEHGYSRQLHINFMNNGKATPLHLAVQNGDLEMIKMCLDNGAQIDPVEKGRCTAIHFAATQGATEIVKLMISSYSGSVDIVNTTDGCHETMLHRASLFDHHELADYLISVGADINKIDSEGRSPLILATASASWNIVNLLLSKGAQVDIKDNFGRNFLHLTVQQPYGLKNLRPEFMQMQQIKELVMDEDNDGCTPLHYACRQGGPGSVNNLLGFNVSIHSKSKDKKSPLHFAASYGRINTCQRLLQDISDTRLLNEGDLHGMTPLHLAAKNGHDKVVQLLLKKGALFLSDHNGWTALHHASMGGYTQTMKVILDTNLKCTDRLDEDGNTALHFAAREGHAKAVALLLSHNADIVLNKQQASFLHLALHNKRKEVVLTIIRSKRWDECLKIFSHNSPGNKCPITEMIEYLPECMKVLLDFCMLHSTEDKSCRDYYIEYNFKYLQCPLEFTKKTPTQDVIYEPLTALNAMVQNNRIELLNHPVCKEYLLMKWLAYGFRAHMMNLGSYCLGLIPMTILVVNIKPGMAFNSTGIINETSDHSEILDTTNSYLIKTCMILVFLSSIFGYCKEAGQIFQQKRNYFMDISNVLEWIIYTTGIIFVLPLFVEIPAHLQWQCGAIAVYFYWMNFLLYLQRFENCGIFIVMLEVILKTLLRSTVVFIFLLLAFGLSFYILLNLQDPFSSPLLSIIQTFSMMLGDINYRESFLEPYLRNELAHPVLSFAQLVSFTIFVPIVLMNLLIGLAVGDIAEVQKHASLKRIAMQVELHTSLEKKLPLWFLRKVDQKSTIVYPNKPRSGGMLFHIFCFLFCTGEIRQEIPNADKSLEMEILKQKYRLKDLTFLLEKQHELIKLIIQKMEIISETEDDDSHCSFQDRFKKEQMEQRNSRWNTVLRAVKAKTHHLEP
Chain of Glycine receptor subunit alpha-1 (Homo sapiens) (P23415 whole entry): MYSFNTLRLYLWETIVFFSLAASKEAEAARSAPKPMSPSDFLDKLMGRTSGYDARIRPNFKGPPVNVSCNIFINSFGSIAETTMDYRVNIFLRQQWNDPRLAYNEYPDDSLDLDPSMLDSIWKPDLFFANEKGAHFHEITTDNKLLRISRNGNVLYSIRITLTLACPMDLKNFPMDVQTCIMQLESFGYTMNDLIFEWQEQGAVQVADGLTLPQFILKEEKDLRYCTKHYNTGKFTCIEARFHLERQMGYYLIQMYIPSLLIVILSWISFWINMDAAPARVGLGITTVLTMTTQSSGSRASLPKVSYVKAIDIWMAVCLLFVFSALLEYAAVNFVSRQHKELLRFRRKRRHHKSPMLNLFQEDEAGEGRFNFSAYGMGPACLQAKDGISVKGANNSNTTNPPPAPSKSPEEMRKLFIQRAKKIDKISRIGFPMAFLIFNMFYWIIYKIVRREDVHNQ
Chain of Sodium-dependent noradrenaline transporter (Homo sapiens) (P23975 whole entry): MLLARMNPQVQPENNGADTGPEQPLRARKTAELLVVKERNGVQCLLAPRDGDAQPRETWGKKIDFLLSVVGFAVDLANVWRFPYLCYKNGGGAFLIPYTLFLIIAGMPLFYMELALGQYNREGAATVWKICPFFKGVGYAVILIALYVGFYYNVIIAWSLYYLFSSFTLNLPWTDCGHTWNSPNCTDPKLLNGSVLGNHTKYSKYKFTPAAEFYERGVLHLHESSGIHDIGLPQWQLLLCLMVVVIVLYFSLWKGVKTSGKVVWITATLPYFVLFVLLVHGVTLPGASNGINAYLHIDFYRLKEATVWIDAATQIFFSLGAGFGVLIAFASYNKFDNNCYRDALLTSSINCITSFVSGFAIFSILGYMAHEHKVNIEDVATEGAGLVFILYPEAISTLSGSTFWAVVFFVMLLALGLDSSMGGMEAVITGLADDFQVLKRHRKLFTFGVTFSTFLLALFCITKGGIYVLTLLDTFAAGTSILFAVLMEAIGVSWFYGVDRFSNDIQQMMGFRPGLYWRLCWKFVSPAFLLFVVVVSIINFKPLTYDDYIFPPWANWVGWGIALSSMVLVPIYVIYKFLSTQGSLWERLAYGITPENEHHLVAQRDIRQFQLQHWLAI
Chain of Alpha-1D adrenergic receptor (Homo sapiens) (P25100 whole entry): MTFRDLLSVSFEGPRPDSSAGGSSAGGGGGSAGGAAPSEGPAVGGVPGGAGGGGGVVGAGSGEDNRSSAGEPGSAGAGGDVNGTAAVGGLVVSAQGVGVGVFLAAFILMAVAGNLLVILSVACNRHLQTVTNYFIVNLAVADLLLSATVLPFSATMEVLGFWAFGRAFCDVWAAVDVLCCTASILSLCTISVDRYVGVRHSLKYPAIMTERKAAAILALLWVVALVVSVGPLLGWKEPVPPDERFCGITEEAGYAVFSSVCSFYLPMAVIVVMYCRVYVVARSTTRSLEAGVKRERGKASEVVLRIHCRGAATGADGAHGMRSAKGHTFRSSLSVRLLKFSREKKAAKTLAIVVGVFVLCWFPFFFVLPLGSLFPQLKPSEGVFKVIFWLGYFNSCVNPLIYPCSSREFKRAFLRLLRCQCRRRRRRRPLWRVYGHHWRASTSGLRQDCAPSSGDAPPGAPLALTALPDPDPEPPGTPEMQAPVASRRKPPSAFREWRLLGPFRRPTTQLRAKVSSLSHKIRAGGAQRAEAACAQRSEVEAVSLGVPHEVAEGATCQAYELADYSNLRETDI
Chain of Acetylcholinesterase (Homo sapiens) (P22303 whole entry): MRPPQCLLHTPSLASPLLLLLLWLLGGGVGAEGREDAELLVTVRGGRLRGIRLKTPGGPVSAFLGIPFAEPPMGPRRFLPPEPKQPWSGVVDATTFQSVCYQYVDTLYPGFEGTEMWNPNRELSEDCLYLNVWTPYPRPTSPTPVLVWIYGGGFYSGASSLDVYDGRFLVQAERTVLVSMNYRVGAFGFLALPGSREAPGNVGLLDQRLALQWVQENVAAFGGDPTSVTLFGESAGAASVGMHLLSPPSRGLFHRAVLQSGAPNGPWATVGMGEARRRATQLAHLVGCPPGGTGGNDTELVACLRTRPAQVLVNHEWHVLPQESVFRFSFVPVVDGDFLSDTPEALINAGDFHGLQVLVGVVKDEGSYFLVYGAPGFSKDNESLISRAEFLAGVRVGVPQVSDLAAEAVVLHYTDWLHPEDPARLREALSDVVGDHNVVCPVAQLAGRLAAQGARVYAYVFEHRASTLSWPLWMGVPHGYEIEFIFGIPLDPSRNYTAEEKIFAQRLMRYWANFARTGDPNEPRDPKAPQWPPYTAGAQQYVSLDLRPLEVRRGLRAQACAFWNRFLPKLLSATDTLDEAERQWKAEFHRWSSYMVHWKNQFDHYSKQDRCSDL
Chain of Histamine H1 receptor (Homo sapiens) (P35367 whole entry): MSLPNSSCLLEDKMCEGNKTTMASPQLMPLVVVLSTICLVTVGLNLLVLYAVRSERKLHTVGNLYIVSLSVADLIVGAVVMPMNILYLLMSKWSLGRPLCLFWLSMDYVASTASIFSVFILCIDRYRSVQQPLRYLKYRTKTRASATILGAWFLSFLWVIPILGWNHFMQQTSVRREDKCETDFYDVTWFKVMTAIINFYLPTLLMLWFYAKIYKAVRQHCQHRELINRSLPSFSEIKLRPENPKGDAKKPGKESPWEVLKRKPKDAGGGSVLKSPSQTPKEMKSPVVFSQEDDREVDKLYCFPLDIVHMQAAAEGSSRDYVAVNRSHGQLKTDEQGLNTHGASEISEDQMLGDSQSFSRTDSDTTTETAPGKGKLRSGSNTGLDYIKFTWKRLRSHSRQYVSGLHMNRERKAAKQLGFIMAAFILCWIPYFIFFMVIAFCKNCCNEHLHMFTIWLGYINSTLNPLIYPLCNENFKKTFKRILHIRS
Chain of Muscarinic acetylcholine receptor M2 (Homo sapiens) (P08172 whole entry): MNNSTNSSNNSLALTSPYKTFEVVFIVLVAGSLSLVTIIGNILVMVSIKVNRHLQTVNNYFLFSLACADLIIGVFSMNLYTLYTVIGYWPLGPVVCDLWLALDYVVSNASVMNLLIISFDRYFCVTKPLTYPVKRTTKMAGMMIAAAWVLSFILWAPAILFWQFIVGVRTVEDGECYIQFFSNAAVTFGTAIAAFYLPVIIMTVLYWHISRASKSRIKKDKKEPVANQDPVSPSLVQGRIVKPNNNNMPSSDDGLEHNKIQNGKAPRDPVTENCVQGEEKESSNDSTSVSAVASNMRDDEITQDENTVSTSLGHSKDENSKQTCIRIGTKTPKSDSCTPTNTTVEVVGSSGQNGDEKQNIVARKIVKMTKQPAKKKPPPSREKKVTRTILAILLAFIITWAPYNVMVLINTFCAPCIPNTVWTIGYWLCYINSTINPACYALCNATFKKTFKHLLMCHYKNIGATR

Compound: O=C(NCc1ccc(OC(F)(F)F)cc1)C1c2ccccc2C(=O)N1C1CCOCC1 (single isomer, unassigned; enantiomer 2)
- inhibition [1]: inactive
- microsomal CLint (in vitro [2]): < 10 µL/min/mg
- inhibition in vivo at 140 µmol/kg (Rattus norvegicus [3]): 30%
- bioavailability (in vivo [4]): 20%
- inhibition [5]: inactive
- inhibition [6]: inactive
- inhibition [7]: inactive
- inhibition (Rattus norvegicus [8]): 79%
- IC50 (cells): > 33 µM
- Vd (in vivo [9]): 0.8 L/kg
- inhibition [10]: inactive
- inhibition [11]: inactive
- half-life (in vivo [12]): 1.9 h
- AUC (in vivo [13]): 1.7 µM·h
- Kp (in vivo [14]): 1
- inhibition [15]: inactive
- inhibition [16]: inactive
- inhibition [17]: inactive
- inhibition [18]: inactive
- microsomal CLint (in vitro [19]): 15 µL/min/mg
- fraction unbound (in vitro [20]): 0.132
- inhibition [21]: inactive
- inhibition [22]: inactive
- inhibition [23]: inactive
- inhibition [24]: inactive
- inhibition [25]: inactive
- clearance (in vivo [26]): 30 mL/min/kg
- Cmax (in vivo [27]): 600 nM
- inhibition [28]: inactive
- inhibition in vivo at 100 µmol/kg (Rattus norvegicus [29]): 54%
- inhibition in vivo at 30 µmol/kg (Rattus norvegicus [30]): 34%
- inhibition [31]: inactive
- half-life (in vivo [32]): 1 h
- AUC (in vivo [33]): 1.1 µM·h
- inhibition in vivo at 30 µmol/kg (Rattus norvegicus [34]): 16%
- inhibition in vivo at 100 µmol/kg (Rattus norvegicus [35]): 65%
- inhibition [36]: inactive
- inhibition in vivo at 100 µmol/kg (Rattus norvegicus [37]): 42%
- Tmax (in vivo [38]): 0.3 h
- inhibition [39]: inactive

Compound: O=C(NCc1ccc(OC(F)(F)F)cc1)C1c2ccccc2C(=O)N1CCc1ccccn1 (stereo in doubt; 16A)
- inhibition [1]: inactive
- inhibition in vivo at 140 µmol/kg (Rattus norvegicus [40]): 53%
- inhibition in vivo at 140 µmol/kg (Rattus norvegicus [3]): 84%
- bioavailability (in vivo [4]): 37%
- inhibition [5]: inactive
- inhibition [6]: inactive
- inhibition [7]: inactive
- inhibition (Rattus norvegicus [8]): 100%
- IC50 (cells): 10 µM
- inhibition [10]: inactive
- inhibition [11]: 44%
- half-life (in vivo [12]): 5.9 h
- AUC (in vivo [13]): 1.7 µM·h
- Kp (in vivo [14]): 2
- inhibition [15]: inactive
- inhibition [17]: inactive
- inhibition [18]: inactive
- fraction unbound (in vitro [20]): 0.045
- inhibition [21]: inactive
- inhibition in vivo at 30 µmol/kg (Rattus norvegicus [41]): 35%
- inhibition [22]: inactive
- inhibition [23]: inactive
- inhibition [24]: inactive
- inhibition [25]: inactive
- Cmax (in vivo [27]): 600 nM
- inhibition [28]: inactive
- inhibition in vivo at 100 µmol/kg (Rattus norvegicus [29]): 56%
- inhibition in vivo at 30 µmol/kg (Rattus norvegicus [30]): 25%
- inhibition [31]: inactive
- AUC (in vivo [33]): 2.1 µM·h
- inhibition in vivo at 30 µmol/kg (Rattus norvegicus [34]): 26%
- inhibition in vivo at 100 µmol/kg (Rattus norvegicus [35]): 44%
- inhibition [36]: inactive
- inhibition in vivo at 100 µmol/kg (Rattus norvegicus [37]): 42%
- Tmax (in vivo [38]): 0.5 h
